Test results: US5354748A, “Oral antibacterial compositions and method for the improvement of gastrointestinal absorption of penem or carbapenem antibiotics” (Suntory Limited, priority 1991, dated 1994)
Read-outs that look alike come from different tables or passages of the source.

Assays:
[1] = in vivo; design: species or system Sprague-Dawley male rats; conditions: rat, plasma, iv, 11.4 mg/kg, intravenous penem 11.4 mg (titer)/Kg
Procedure: The blood was collected during the period of from 0.1 to 1.5 hours after the administration. The concentrations of the free acid of the penem in plasma samples were measured by high performance liquid chromatography (HPLC) to determine the area under the plasma concentration:time curve (AUC).

[2] = Oral absorption of penem in rats with simultaneous administration of cilastatin (Example 3); assay type: in vivo, Sprague-Dawley male rats; conditions: rat; for AUC at 2 h / Cmax / bioavailability: plasma, po, 57.1 mg/kg, oral 57.1 mg (titer)/Kg; for bioavailability: read-out: Absorption (Oral Absorption Percentage A)
Procedure: Those compositions were separately and orally administered to seven-week-old, Sprague-Dawley male rats to give a dose of 57.1 mg (titer)/Kg in terms of the penem carboxylate. The blood was drawn from the femoral artery via a polyethylene catheter over 2.0 hours after the administration.

[3] = Plasma concentration of penem in rats, oral penem with oral N-acetyl-L-cysteine (Example 8); assay type: in vivo, Sprague-Dawley male rats; conditions: rat, 57.1 mg/kg, oral 57.1 mg (titer)/Kg
Procedure: Seven-week-old Sprague-Dawley male rats were orally administered with 57.1 mg (titer)/Kg of sodium (1'R,2"R,5R,6S)-6-(1'-hydroxyethyl)-2-(2"-tetrahydrofuranyl)penem-3-carboxylate 2.5 hydrate. At the same time, N-acetyl-L-cysteine was orally administered at 57.1 mg/Kg. The blood was collected during the period of from 0.1 to 2.0 hours after the administration.
The concentrations of the free acid of the penem in plasma samples were measured by high performance liquid chromatography (HPLC) to determine the highest concentration in plasma and the area under the plasma concentration: time curve (AUC).

[4] = Plasma concentration and urinary excretion of penem in dogs, capsules with glutathione (Example 7); assay type: in vivo; conditions: dog, po, 75 mg; for AUC at 4 h / Cmax: plasma
Procedure: Namely, the penemcarboxylate and glutathione were mixed in amounts of 75 mg (titer) and 75, 15 or 3.75 mg, respectively, per capsule. The resultant mixed powder was filled in a capsule. Capsules were prepared in the manner described above.

[5] = Plasma concentration of penem in rats, oral penem with oral glutathione (Example 6); assay type: in vivo, Sprague-Dawley male rats; conditions: rat; for AUC at 2 h / Cmax: plasma, po, 57.1 mg/kg, oral 57.1 mg (titer)/Kg
Procedure: (§1) Seven-week-old Sprague-Dawley male rats were orally administered with 57.1 mg (titer)/Kg of sodium (1'R,2"R,5R,6S)-6-(1'-hydroxyethyl)-2-(2"-tetrahydrofuranyl)penem-3-carboxylate 2.5 hydrate. At the same time, glutathione was orally administered at 57.1 or 5.71 mg/Kg. The blood was collected during the period of from 0.1 to 2.0 hours after the administration. The concentrations of the free acid of the penem in plasma samples were measured by high performance liquid chromatography (HPLC) to determine the highest concentration in plasma and the area under the plasma concentration:time curve (AUC).

[6] = Plasma concentration of penem in rats, oral penem with oral cilastatin (Example 5); assay type: in vivo, Sprague-Dawley male rats; conditions: rat; for AUC at 1.5 h / Cmax: plasma, po, 57.1 mg/kg, oral 57.1 mg (titer)/Kg; for Cmax: read-out: Highest concentration in plasma
Procedure: as §1, with “time, cilastatin” for “time, glutathione”, “at 7.17, 0.717” for “at 57.1”, “or 0.0717” for “or 5.71”, “to 1.5” for “to 2.0”

[7] = dog, in vivo
Procedure: Capsules were prepared by filling capsules with a 12.6:1 or 126:1 (by molar ratio) mixture of sodium (1'R,2"R,5R,6S)-6-(1'-hydroxyethyl)-2-(2"-tetrahydrofuranyl)penem-3-carboxylate 2.5 hydrate and cilastatin, namely, with a powder mixture consisting of 75 mg of the penem carboxylate and 7.5 or 0.75 mg of cilastatin per capsule. One of the capsules was orally administered to matured dogs. The blood was collected during the period of from 0.25 to 4 hours after the administration, and the concentrations of the free acid of the penem in plasma samples were measured by HPLC. Further, urine samples were collected until 24 hours after the administration and the concentrations of the free acid of the penem in the urine samples were measured by HPLC.
The area under the concentration:time curve (AUCpO) Of the compound contained in the plasma after its oral administration was compared to the area under the concentration:time curve (AUCiv) when the penemcarboxylate alone was intravenously administered at 10 mg/Kg and, assuming AUCiv be 100%, the percentage of AUCpo was calculated in accordance with the following formula and recorded as Oral Absorption Percentage A. Similarly, assuming that the percentage of excretion of the above penemcarboxylate into urine (Uiv) upon its intravenous administration at 10 mg/Kg be 100%, Oral Absorption Percentage B was calculated in accordance with the following formula from the percentage of excretion of the penemcarboxylate into urine upon its oral administration (Upo).
Oral absorption A (%)=AUCpo/AUCiv×10/75×100
Oral absorption B (%)=Upo/Uiv×100

[8] = single administration (penem alone)
[9] = single administration (penem alone), read-out: Highest concentration in plasma

`C[C@@H](O)[C@H]1C(=O)N2C(C(=O)O)=C([C@H]3CCCO3)S[C@H]12` [sodium (1'R,2"R,5R,6S)-6-(1'-hydroxyethyl)-2-(2"-tetrahydrofuranyl)penem-3-carboxylate 2.5 hydrate] gave an AUC at 1.5 h ([1]; cilastatin 0 (penem alone)) of 7170 ng·h/mL, an AUC at 1.5 h ([1]; cilastatin 0.0717 mg/Kg oral) of 6860 ng·h/mL and an AUC at 1.5 h ([1]; cilastatin 0.717 mg/Kg oral) of 5670 ng·h/mL. For the same compound, the AUC at 1.5 h ([1]; cilastatin 7.17 mg/Kg oral) was 6740 ng·h/mL, the “Increase of oral absorption percentage relative to single administration” value ([2]; oral, cilastatin 1/2000 of the penem carboxylate) was 2.5 times and the AUC at 2 h ([2]; penem:cilastatin molar ratio 1:1) was 25900 ng·h/mL. The Cmax ([2]; penem:cilastatin molar ratio 1:1, read-out: Highest concentration in plasma) was 12400 ng/mL, the bioavailability ([2]; penem:cilastatin molar ratio 1:1, vs AUCiv) was 114% and the AUC at 2 h ([2]; penem:cilastatin molar ratio 10:1) was 19600 ng·h/mL. For the same compound, the Cmax ([2]; penem:cilastatin molar ratio 10:1, read-out: Highest concentration in plasma) was 12700 ng/mL, the bioavailability ([2]; penem:cilastatin molar ratio 10:1, vs AUCiv) was 86.3% and the AUC at 2 h ([2]; penem:cilastatin molar ratio 100:1) was 21100 ng·h/mL. The Cmax ([2]; penem:cilastatin molar ratio 100:1, read-out: Highest concentration in plasma) was 8680 ng/mL, the bioavailability ([2]; penem:cilastatin molar ratio 100:1, vs AUCiv) was 93% and the AUC at 2 h ([2]; penem:cilastatin molar ratio 300:1) was 18300 ng·h/mL. For the same compound, the Cmax ([2]; penem:cilastatin molar ratio 300:1, read-out: Highest concentration in plasma) was 7890 ng/mL, the bioavailability ([2]; penem:cilastatin molar ratio 300:1, vs AUCiv) was 80.3% and the AUC at 2 h ([2]; penem:cilastatin molar ratio 600:1) was 14900 ng·h/mL. For the same compound, the Cmax ([2]; penem:cilastatin molar ratio 600:1, read-out: Highest concentration in plasma) was 8080 ng/mL, the bioavailability ([2]; penem:cilastatin molar ratio 600:1, vs AUCiv) was 65.6% and the AUC at 2 h ([2]; penem:cilastatin molar ratio 1000:1) was 12200 ng·h/mL. The Cmax ([2]; penem:cilastatin molar ratio 1000:1, read-out: Highest concentration in plasma) was 6890 ng/mL, the bioavailability ([2]; penem:cilastatin molar ratio 1000:1, vs AUCiv) was 53.7% and the AUC at 2 h ([2]; penem:cilastatin molar ratio 2000:1) was 10900 ng·h/mL. It also gave a Cmax ([2]; penem:cilastatin molar ratio 2000:1, read-out: Highest concentration in plasma) of 7690 ng/mL, a bioavailability ([2]; penem:cilastatin molar ratio 2000:1, vs AUCiv) of 48.1% and an AUC at 2 h [2, 8] of 4420 ng·h/mL. It also gave a Cmax [2, 9] of 4810 ng/mL, a bioavailability ([2]; single administration (penem alone), vs AUCiv) of 19.4% and an AUC at 2 h ([3]; penem:N-acetyl-L-cysteine molar ratio 0.6:1) of 5240 ng·h/mL. For the same compound, the Cmax ([3]; penem:N-acetyl-L-cysteine molar ratio 0.6:1, read-out: Highest concentration in plasma) was 6790 ng/mL, the AUC at 2 h [3, 8] was 2520 ng·h/mL and the Cmax [3, 9] was 3290 ng/mL. The AUC at 4 h ([4]; oral capsule 75 mg (titer), penem:glutathione molar ratio 1.1:1) was 33700 ng·h/mL, the Cmax ([4]; oral capsule 75 mg (titer), penem:glutathione molar ratio 1.1:1, read-out: Highest concentration in plasma) was 22700 ng/mL and the Cmax ([4]; oral, single administration (penem alone), read-out: Highest concentration in plasma) was 11600 ng/mL. The AUC at 4 h [4, 8] was 17700 ng·h/mL, the dose excreted at 24 h ([4]; urine, oral, single administration (penem alone), up to 24 hours, read-out: Excretion into urine) was 16.7% and the “Increase of AUC relative to penem alone” value ([5]; oral, glutathione 1/11 of the penem) was 1.2 times. It also gave an AUC at 2 h ([5]; penem:glutathione molar ratio 1.1:1) of 6160 ng·h/mL, a Cmax ([5]; penem:glutathione molar ratio 1.1:1, read-out: Highest concentration in plasma) of 5840 ng/mL and an AUC at 2 h ([5]; penem:glutathione molar ratio 11:1) of 5540 ng·h/mL. The Cmax ([5]; penem:glutathione molar ratio 11:1, read-out: Highest concentration in plasma) was 5030 ng/mL, the AUC at 2 h [5, 8] was 4570 ng·h/mL and the Cmax [5, 9] was 4340 ng/mL. For the same compound, the “Increase of AUC relative to single administration” value ([6]; oral, at each cilastatin dosage (7.17, 0.717, 0.0717 mg/Kg)) was 2.8-4.8 times, the AUC at 1.5 h ([6]; cilastatin 0 (penem alone)) was 4420 ng·h/mL and the Cmax ([6]; cilastatin 0 (penem alone)) was 4810 ng/mL. It also gave an AUC at 1.5 h ([6]; cilastatin 0.0717 mg/Kg oral) of 12200 ng·h/mL, a Cmax ([6]; cilastatin 0.0717 mg/Kg oral) of 6890 ng/mL and an AUC at 1.5 h ([6]; cilastatin 0.717 mg/Kg oral) of 21100 ng·h/mL. The Cmax ([6]; cilastatin 0.717 mg/Kg oral) was 8680 ng/mL, the AUC at 1.5 h ([6]; cilastatin 7.17 mg/Kg oral) was 19600 ng·h/mL and the Cmax ([6]; cilastatin 7.17 mg/Kg oral) was 12700 ng/mL. The “Increase of oral absorption percentage (from AUC) relative to penemcarboxylate alone” value [7] was 2.3 times, the “Oral absorption A” value [7] was 33.9% and the “Increase of oral absorption percentage (from excretion into urine) relative to penemcarboxylate alone” value ([7]; 1440 min) was 2.3 times. The “Oral absorption B” value ([7]; 24 h) was 38.6%, the “Highest concentration in plasma” value ([7]; po) was 11.86 µg/mL and the AUC ([7]; po, 4 h) was 18620 ng·h/mL. It also gave an Excretion into urine ([7]; po, 24 h) of 16.58%.
